Results reported in patent US11529332B2 (priority 2017, dated 2022).
Read-outs that look alike come from different tables or passages of the source.

Key:
MYXV [1] = assay: Lysis plaque analysis in RK13 infected with MYXV; type: cell-based, Myxoma virus; settings: 6d PI
Method: Lysis plaque analysis was carried out in RK13 infected with MYXV 6d PI. Lysis plaques area and number of lysis plaques were assessed directly on microscope pictures (FIG. 4).

MYXV [2] = assay: MYXV-GFP infection rate in RK13 cells (high content microscopy); settings: for IC50: MYXV in RK13 cells; for Inhibition of MYXV infection rate (in words): RK13 cells
Method: RK13 (rabbit epitelial kidney) cells were used for MYXV infection assay.
Cells were grown in 200 μL Dulbecco's Modified Eagle's medium (DMEM) without phenol red (Sigma-Aldrich), 10% SVF, Pen-strep, 1× sodium pyruvate, 1× Glutamax.
RK13 cells at MOI 0.5 48 h post-infection (PI) are fixed with Formalin 10 min at room temperature. Wash with 200 μL PBS and 100 μL PBS/Hoechst 33342 (1/1000) per well. 96 well plates are kept at 4° C. in the dark until data acquisition. Image acquisition and analysis for high content quantification is performed on a Thermo Cellomics Arrayscan VTI microscope using a modified compartmental analysis algorithm.
RK13 cells for the toxicity study and RK13 cells at MOI 0.01 6 days PI are fixed and image acquisition and analysis are performed as previously described.
On 48 h and 6d post-infection, data acquisition was done by high content microscopy to calculate infection level according to compound concentration.

[3] = read-out: IC50 (48 h PI), MOI 0.5, 48 h post-infection
[4] = read-out: IC50 (6 d PI), MOI 0.01, 6 days post-infection

| Compound | Area in cm^2 of lysis plaques (MYXV [1]; concentration 0.37 μM) | Number of lysis plaques (MYXV [1]; concentration 0.37 μM) | Area in cm^2 of lysis plaques (MYXV [1]; concentration 0.75 μM) | Number of lysis plaques (MYXV [1]; concentration 0.75 μM) | Number of lysis plaques (MYXV [1]; concentration 1.5 μM) | Number of lysis plaques (MYXV [1]; concentration 3.1 μM) | CC50 (RK13 cells) | IC50 (MYXV [2]; [3]) | IC50 (MYXV [2]; [4]) | Inhibition of MYXV infection rate (in words) (MYXV [2]) |
| --- | --- | --- | --- | --- | --- | --- | --- | --- | --- | --- |
| O=[N+]([O-])c1ccc(F)c(-c2c3nc(c4ccc([nH]4)c(-c4cc([N+](=O)[O-])ccc4F)c4ccc([nH]4)c(-c4cc([N+](=O)[O-])ccc4F)c4ccc2[nH]4)C=C3)c1 [FNO2Cor, 5,10,15-Tris(2-fluoro-5-nitrophenyl)corrole] | 8 cm^2 | 5 | 3.4 cm^2 | 6 | 1.3 | 0 | 3740 nM | 1330 nM | 500 nM |  |
| Fc1c(F)c(F)c(-c2c3nc(c4ccc([nH]4)c(-c4c(F)c(F)c(F)c(F)c4F)c4ccc([nH]4)c(-c4c(F)c(F)c(F)c(F)c4F)c4ccc2[nH]4)C=C3)c(F)c1F [TPFCor, 5,10,15-Tris(pentafluorophenyl)corrole] | 6 cm^2 | 6.7 |  | 6 | 3.3 | 4 | 6680 nM | 270 nM | 120 nM | better in vitro anti-MYXV effect than FNO2Cor |
| O=[N+]([O-])c1ccc(-c2c3nc(c4ccc([nH]4)c(-c4ccc([N+](=O)[O-])cc4)c4ccc([nH]4)c(-c4ccc([N+](=O)[O-])cc4)c4ccc2[nH]4)C=C3)cc1 [TpNO2Cor, 5,10,15-Tris(4-nitrophenyl)corrole] | 9 cm^2 | 4 | 3.4 cm^2 | 6.7 | 2.7 | 0 | 4360 nM | 430 nM | 200 nM | better in vitro anti-MYXV effect than FNO2Cor |
